# Data: article PMC11876671, “Investigating blood–brain barrier penetration and neurotoxicity of natural products for central nervous system drug development” (Scientific Reports, 2025)
# Where a name gives a salt, the structure may show the parent alone. *1 amine or outer side, *2 acyl side, *3 side chain or, on linkers, in order; H or OH if unused. Where a SMILES comes first, the peptide text is derived from it. Bridges are numbered along the chain shown (N, C = ends). [ ]: non-standard residue; d: D form. The star is where a group is joined. X1 = NC1=N[C@@H]([C@H](N[*:1])C(=O)[*:2])C[C@H](O)N1; ΔAla(Z-3-ureido) = NC(=O)N/C=C(\N)C(=O)O; β3hOrn = NCCC[C@H](N)CC(=O)*; Dap = NC[C@H](N)C(=O)O
# Test: in vitro
# Settings: PAMPA, PAMPA-BBB Pe
row,Compound,Papp
1,COC(=O)[C@@H]1[C@H]2C[C@H]3c4[nH]c5ccccc5c4CCN3C[C@@H]2CC[C@@H]1O [YOHIMBINE],42 ×10⁻⁶ cm/s
2,COC(=O)c1c(C)cc(O)c(C)c1O [VERAMOSS],225 ×10⁻⁶ cm/s

# Same assay, conditions: PAMPA, PAMPA-BBB Pe(10^-6 cm/sec)
row,Compound,Papp
1,CC1=C(C)C(=O)C(CC[C@](C)(O)CCC[C@H](C)CCC[C@H](C)CCCC(C)C)=C(C)C1=O [.ALPHA.-TOCOPHERYLQUINONE],7.2 ×10⁻⁶ cm/s
2,CNCC(O)c1ccc(O)c(O)c1 (centres unmarked) [RACEPINEPHRINE HYDROCHLORIDE],< 1 ×10⁻⁶ cm/s
3,O=c1cccc2n1C[C@@H]1CNC[C@H]2C1 [CYTISINE],< 1 ×10⁻⁶ cm/s
4,COc1ccc(C[C@H](N)C(=O)N[C@@H]2[C@@H](CO)OC(n3cnc4c(N(C)C)ncnc43)[C@@H]2O)cc1 (some centres unmarked) [PUROMYCIN MONOHYDROCHLORIDE],< 1 ×10⁻⁶ cm/s
5,C[C@H]1C[C@H]2[C@@H]3CCC4=CC(=O)C=C[C@]4(C)[C@H]3C(=O)C[C@]2(C)[C@@]1(O)C(=O)CO [MEPREDNISONE],3.7 ×10⁻⁶ cm/s
6,C[n+]1cccc(C(=O)[O-])c1 [TRIGONELLINE],< 1 ×10⁻⁶ cm/s

# Same assay, conditions: PAMPA, PAMPA-BBB Pe(10^-6 cm/sec), Table S3: compounds exhibiting low PAMPA-BBB permeability
row,Compound,Papp
1,O=c1cc(-c2ccc(O)cc2)oc2cc(O[C@H]3OC(CO)C(O)C(O)C3O)cc(O)c12 (some centres unmarked) [COSMOSIOSIDE],1.6 ×10⁻⁶ cm/s
2,CCC/C=C/C/C=C/C=C/C=N/NN=O [TRIACSIN C],8.1 ×10⁻⁶ cm/s
3,Oc1ccc2c(c1)OC[C@]1(O)Cc3cc(O)c(O)cc3[C@H]21 [BRAZILIN],1.9 ×10⁻⁶ cm/s
4,CCNc1nc(N)nc(Cl)n1,1.1 ×10⁻⁶ cm/s
5,CC[C@H]1CN2CC[C@]3(C(=O)Nc4ccccc43)[C@@H]2C[C@@H]1/C(=C\OC)C(=O)OC [RHYNCHOPHYLLINE],6.5 ×10⁻⁶ cm/s
6,CC(=O)O[C@H]1C(=O)[C@@]2(C)[C@H]([C@H](OC(=O)c3ccccc3)[C@]3(O)C[C@H](O)C(C)=C1C3(C)C)[C@]1(OC(C)=O)CO[C@@H]1C[C@@H]2O [BACCATIN III],< 1 ×10⁻⁶ cm/s
7,O=c1[nH]c(=O)c2ncn([C@@H]3O[C@H](CO)[C@@H](O)[C@H]3O)c2[nH]1 [XANTHOSINE],< 1 ×10⁻⁶ cm/s
8,NCCC[C@H](N)CC(=O)N[C@H]1CNC(=O)[C@H]([C@H]2C[C@H](O)NC(N)=N2)NC(=O)/C(=C/NC(N)=O)NC(=O)[C@H](CO)NC(=O)[C@H](CO)NC1=O [VIOMYCIN SULFATE] (β3hOrn-[Dap]SS[ΔAla(Z-3-ureido)][X1]; lactam 1-C),< 1 ×10⁻⁶ cm/s
9,COc1cc2c(c(OC)c1OC)-c1ccc(OC)c(=O)cc1[C@@H](NC=O)CC2 [N-FORMYL-N-DEACETYLCOLCHICINE],6.6 ×10⁻⁶ cm/s
10,O=[N+]([O-])c1ncc[nH]1 [AZOMYCIN],< 1 ×10⁻⁶ cm/s
11,C[C@H](O)C(=O)C1=Nc2c(nc(N)[nH]c2=O)NC1 [SEPIAPTERIN],1.6 ×10⁻⁶ cm/s
12,"COC1=CC(=O)C=C(OC)C1=O [2,6-DIMETHOXY-1,4-BENZOQUINONE]",< 1 ×10⁻⁶ cm/s
13,Oc1cc(O)c2cc(O)c(-c3cc(O)c(O)c(O)c3)[o+]c2c1 [D[…]],4.7 ×10⁻⁶ cm/s
14,O=C(O)c1cccc(O)c1O [PYR[…]],< 1 ×10⁻⁶ cm/s
15,C[C@@H]1O[C@@H](O[C@@H]2C=C3CC[C@@H]4[C@H](CC[C@]5(C)[C@@H](c6ccc(=O)oc6)CC[C@]45O)[C@@]3(C)CC2)[C@H](O)[C@H](O)[C@H]1O [PROSCILLARIDIN],1.5 ×10⁻⁶ cm/s
16,"COc1ccc(C(=O)O)cc1OC [3,4-DIMETHOXYBENZOIC ACID]",< 1 ×10⁻⁶ cm/s
17,COc1cc2c(CCNC(C)=O)c[nH]c2cc1O [6-HYDROXYMELATONIN],2.8 ×10⁻⁶ cm/s
18,CC1=C(/C=C/C(C)=C/C=C/C(C)=C/C=C/C=C(C)/C=C/C=C(\C)C=O)C(C)(C)CCC1 [APOCAROTENAL],< 1 ×10⁻⁶ cm/s

row,Compound,Papp
1,O=C(O)Cc1ccc(O)c(O)c1 [DOPACETIC ACID],< 1 ×10⁻⁶ cm/s
2,CC(C)C1=CC2=CC[C@@H]3[C@](C)(CCC[C@@]3(C)C(=O)O)[C@H]2CC1 [SODIUM ABIETATE],< 1 ×10⁻⁶ cm/s
3,CO[C@H]1/C=C/O[C@@]2(C)Oc3c(C)c(O)c4c(O)c(cc(O)c4c3C2=O)NC(=O)/C(C)=C\C=C\[C@H](C)[C@H](O)[C@@H](C)[C@@H](O)[C@@H](C)[C@H](OC(C)=O)[C@@H]1C [RIFAMYCIN],< 1 ×10⁻⁶ cm/s
4,O=C(/C=C/c1ccc(O)c(O)c1)c1ccc(O[C@@H]2O[C@H](CO)[C@@H](O)[C@H](O)[C@H]2O)c(O)c1O [MAREIN¦],1.6 ×10⁻⁶ cm/s
5,CNc1ncnc2c1ncn2C1OC(CO)C(O)C1O (centres unmarked) [N-METHYLADENOSINE],< 1 ×10⁻⁶ cm/s
6,N[C@H](C(=O)O)c1cc(O)cc(O)c1 [DIHYDROXYPHENYLGLYCINE],< 1 ×10⁻⁶ cm/s
7,Cc1cc(O)c2c(=O)c3c(O)cc(O)c4c5c(O)cc(O)c6c(=O)c7c(O)cc(C)c8c1c2c(c34)c(c78)c65 [HYPERICIN],6.4 ×10⁻⁶ cm/s
8,O=C(OC[C@H]1O[C@@H](OC(=O)c2cc(O)c(O)c(O)c2)[C@H](OC(=O)c2cc(O)c(O)c(O)c2)[C@@H](OC(=O)c2cc(O)c(O)c(O)c2)[C@@H]1OC(=O)c1cc(O)c(O)c(O)c1)c1cc(O)c(O)c(O)c1 [PENTAGALLOYLGLUCOSE],3.2 ×10⁻⁶ cm/s
9,CC1=C[C@H]2[C@@]3(O)[C@H](C)[C@@H](O)[C@]4(O)[C@H]([C@@H]3C=C(CO)C[C@]2(O)C1=O)C4(C)C [PHORBOL],< 1 ×10⁻⁶ cm/s
10,O=c1ccc2ccc(O[C@@H]3O[C@H](CO)[C@@H](O)[C@H](O)[C@H]3O)c(O)c2o1 [DAPHNIN],< 1 ×10⁻⁶ cm/s
11,C=C(NC(=O)C(=C)NC(=O)c1csc(C2=N[C@@H]3c4csc(n4)[C@H]4NC(=O)c5csc(n5)[C@H]([C@](C)(O)[C@@H](C)O)NC(=O)[C@H]5CSC(=N5)/C(=C/C)NC(=O)[C@H]([C@@H](C)O)NC(=O)c5csc(n5)[C@]3(CC2)NC(=O)[C@H](C)NC(=O)C(=C)NC(=O)[C@H](C)NC(=O)[C@H]([C@@H](C)CC)N[C@@H]2C=Cc3c([C@H](C)O)cc(nc3[C@H]2O)C(=O)O[C@@H]4C)n1)C(N)=O [THIOSTREPTON],< 1 ×10⁻⁶ cm/s
12,Cc1cccc(C(=O)O)c1O [HYDROXYTOLUIC ACID],< 1 ×10⁻⁶ cm/s
13,O=c1c(O[C@@H]2O[C@H](CO)[C@H](O)[C@H](O)[C@H]2O)c(-c2ccc(O)c(O)c2)oc2cc(O)cc(O)c12 [HYPEROSIDE],1.6 ×10⁻⁶ cm/s
14,O=C1c2c(O)cccc2[C@H]([C@@H]2O[C@H](CO)[C@@H](O)[C@H](O)[C@H]2O)c2cc(CO)cc(O)c21 [ALOIN A],5.4 ×10⁻⁶ cm/s
15,O=c1c(O)c(-c2ccc(O)cc2O)oc2cc(O)cc(O)c12 [MORIN],1.5 ×10⁻⁶ cm/s
16,NCCc1c[nH]c2ccccc12 [TRYPTAMINE HYDROCHLORIDE],< 1 ×10⁻⁶ cm/s
17,CC(=O)O[C@@]12C[C@@H](C)[C@@]3(O)[C@@H](C=C(CO)C[C@]4(O)C(=O)C(C)=C[C@@H]34)[C@@H]1C2(C)C [PROSTRATIN],< 1 ×10⁻⁶ cm/s
18,O=C(O)/C=C/c1c[nH]cn1 [UROCANIC ACID],< 1 ×10⁻⁶ cm/s

# Same assay, conditions: PAMPA, PAMPA-BBB Pe, Table S2: compounds exhibiting moderate to high PAMPA-BBB permeability
row,Compound,Papp
1,CCCCCc1cccc(=O)o1 [6-PENTYL-2H-PYRAN-2-ONE],52 ×10⁻⁶ cm/s
2,COc1cc(/C=C/c2ccccc2)oc(=O)c1 [DEMETHOXYYANGONIN],186 ×10⁻⁶ cm/s
3,CCCCC[C@H](O)CC(=O)CCc1ccc(O)c(OC)c1 [GINGEROL],69 ×10⁻⁶ cm/s
4,C[C@]12CC[C@H](O)C[C@H]1CC[C@@H]1[C@@H]2CC[C@]2(C)[C@@H](c3ccc(=O)oc3)C[C@H]3O[C@]132 [BUFOGENIN],115 ×10⁻⁶ cm/s
5,COc1cc(C2c3cc4c(c(O)c3CC3COC(=O)C32)OCO4)cc(OC)c1O (stereo not drawn) [.ALPHA.-PELTATIN A],14 ×10⁻⁶ cm/s
6,C=C(C)[C@]12C[C@@H](C)[C@@]34O[C@](Cc5ccccc5)(O[C@@H]1[C@@H]3C=C(COC(=O)Cc1ccc(O)c(OC)c1)C[C@]1(O)C(=O)C(C)=C[C@@H]41)O2 [RESINIFERATOXIN],38 ×10⁻⁶ cm/s
7,Cc1ccc2c(c1)C(=O)c1ccccc1C2=O [.BETA.-METHYLANTHRAQUINONE],26 ×10⁻⁶ cm/s
8,CC(=O)[C@H]1CC[C@H]2[C@@H]3C[C@H](C)C4=CC(=O)CC[C@]4(C)[C@H]3[C@@H](O)C[C@]12C [MEDRYSONE],72 ×10⁻⁶ cm/s
9,CN1C[C@H](CO)C=C2c3cccc4[nH]cc(c34)C[C@H]21 [LYSERGOL],51 ×10⁻⁶ cm/s
10,COc1cc2c(cc1OC)OC(C)(C)C=C2 [PRECOCENE II],159 ×10⁻⁶ cm/s
11,O=c1c(-c2ccc(O)cc2)coc2cc(O[C@@H]3O[C@H](CO)[C@@H](O)[C@H](O)[C@H]3O)cc(O)c12 [GENISTIN],29 ×10⁻⁶ cm/s
12,O=C1NC(=O)C(c2c[nH]c3ccccc23)=C1c1c[nH]c2ccccc12 [BISINDOLYLMALEIMIDE],> 654 ×10⁻⁶ cm/s
13,COC1=CC(=O)O[C@@H](/C=C/c2ccc3c(c2)OCO3)C1 [METHYSTICIN],104 ×10⁻⁶ cm/s
14,CCCCc1ccc(O)cc1 [4-BUTYLPHENOL],116 ×10⁻⁶ cm/s
15,COc1ccccc1/C=C/C=O [2'-METHOXYCINNAMALDEHYDE],122 ×10⁻⁶ cm/s
16,COc1cc(-c2cc(=O)c3c(O)cc(O)cc3o2)ccc1O [CHRYSERIOL],179 ×10⁻⁶ cm/s
17,COc1cc2c(c(OC)c1OC)-c1c(cc(OC)c(OC)c1OC)C[C@H](C)[C@H](C)C2 [S[…]],171 ×10⁻⁶ cm/s
18,CC(C)=CCC[C@@H](C)[C@H]1CC[C@@]2(C)C3=C(CC[C@]12C)[C@@]1(C)CC[C@H](O)C(C)(C)[C@@H]1CC3 [LANOSTEROL],13 ×10⁻⁶ cm/s
19,c1ccc2cnccc2c1 [ISOQUINOLINE],157 ×10⁻⁶ cm/s
20,CC(C)(O)[C@H]1O[C@H]2CC[C@@]3(C)[C@@](O)(CC[C@H]4Cc5c([nH]c6ccccc56)[C@@]43C)C2=CC1=O [PAXILLINE],161 ×10⁻⁶ cm/s
21,C=CCc1ccc(O)c(OC)c1 [EUGENOL],116 ×10⁻⁶ cm/s
22,CCOc1ccc(O)cc1 [P-HYDROXYPHENETOLE],35 ×10⁻⁶ cm/s
23,O=C1c2ccccc2-n2c1nc1ccccc1c2=O [[…]],141 ×10⁻⁶ cm/s
24,COc1ccc(-c2coc3cc(O)ccc3c2=O)cc1 [FORMONONETIN],97 ×10⁻⁶ cm/s
